Assay results reported in paper PMC4882237 (Journal of medicinal chemistry, 2016).
“Also recorded” adds a separate entry of the source.

Legend:
[1] = test system: Caco-2; experiment: Caco-2 permeability; format: in vitro ADME; conditions: result in words
[2] = test system: cytochromes P450 (CYPs); experiment: Inhibition of human cytochromes P450, overall; conditions: result in words
[3] = Metabolic stability in human liver microsomes; format: in vitro ADME

binding to / inhibition of cytochromes P450 (CYPs) [2]: minimal; also recorded: very poor
half-life in human liver microsomes ([3]; 1 μM concentration): > 1 h
human microsome CYP metabolism ([3]; for at least 60 min, result in words): little or no
metabolic stability in human liver microsomes ([3]; result in words): good
Compound: CNCCCc1cncc(CCc2cc(C)cc(N)n2)c1 [Compound 14j, 4-Methyl-6-(2-(5-(3-(methylamino)propyl)pyridin-3-yl)ethyl)pyridin-2-amine]
Caco-2 permeability [1]: little to no; also recorded: little or no
